Assays:
Jurkat cells [1] = assay: Caspase 3 activity (apoptosis) in Jurkat cells after storage under xenon pressure; assay type: cell-based; details: 4 Atm excessive pressure of gas comprising xenon, 24 hrs of storage, with and without doxorubicin
U-937 cells = assay: JC-1 staining of U-937 cells with flow cytometry (state of mitochondria, apoptosis) after storage under xenon; assay type: cell-based, human
Method: In order to obtain the data presented in these Examples, Leukemic monocyte lymphoma cells U-937 were grown in RPMI-1640 medium supplied with 15% fetal bovine serum and 10 mkg/ml gentamicin in the atmosphere of 5% CO2 at 37° C. Petri dishes containing the cell culture in exponential phase of growth were placed into a holding rack and transferred into containers having an inner volume of approximately 1.5 L which were designed for storage in hyperbaric conditions. The mixture of gases Xe—CO2 (95% and 5% respectively) was used for buildup of pressure of 0.5 to 4.0 Atm above ambient pressure over a period of 5-10 minutes, with particular parameters presented in connection with the Figures presented herein. The temperature was held from 22° C. to 37° C. in this embodiment of the invention Gases were mixed in a separate tank (or in the container/tube) based on calculation of their partial pressure. The container with Petri dishes was kept at this temperature and pressure for 2 hrs. Then the container was transferred to a refrigerator with decreased temperature (from 0.1° C. to +5° C.), while maintaining the pressure. The container was held at under these conditions for approximately 4 weeks. After that, the pressure was released and the container holding the cells was kept for 7 days in a household at a temperature of +4° C. to +10° C. and atmospheric pressure.
Accordingly, these cells respond to a large number of both extracellular and intracellular proapoptotic signals and have been used as model cells for analyzing apoptosis (Pimentel-Muiños F X, Seed B. Regulated commitment of TNF receptor signaling: a molecular switch for death or activation. Immunity. 1999 December; 11 (6):783-93; Karas M, Zaks T Z, Liu J L, LeRoith D. T cell receptor-induced activation and apoptosis in cycling human T cells occur throughout the cell cycle. Mol Biol Cell. 1999 December; 10 (12):4441-50; Valavanis C, Hu Y, Yang Y, Osborne B A, Chouaib S, Greene L, Ashwell J D, Schwartz L M. Model cell lines for the study of apoptosis in vitro. Methods Cell Biol. 2001; 66:417-36).

Jurkat cells [2] = assay: Live Jurkat cell count (trypan blue) after transfer from storage to standard cultivation conditions; assay type: cell-based; details: 24 hrs under standard conditions (37° C., 5% CO2) after storage, Xe+37 doxo and Xe+4 doxo vs control, FIG. 3

Structure (SMILES): [Xe] [xenon]
- development of spontaneous and induced (Doxo) apoptosis, caspase 3 activity (Jurkat cells [1]; FIG. 4): prevented development of both spontaneous (series no Doxo in the diagram) and induced (series Doxo in the diagram) apoptosis
- development of spontaneous and induced (Doxo) apoptosis, caspase 3 activity (Jurkat cells [1]; FIG. 4, listed as Xenon): prevented development of both spontaneous (no Doxo and non-treated) and induced (Doxo) apoptosis
- development of spontaneous and induced (Doxo) apoptosis (U-937 cells; 4 Atm over ambient pressure Xe, with and without doxorubicin, FIG. 5): prevented development of both spontaneous (no Doxo and non-treated) and induced (Doxo) apoptosis
- damage of mitochondria compared to control (U-937 cells; JC-1, after 7 days of storage, control = no gas, 37° C.): significantly decreased damage of mitochondria
- percentage of doxorubicin-treated cells with undamaged mitochondria (U-937 cells; JC-1, vs cells stored without xenon, after 24 hrs and 7 days of storage, FIG. 5): significantly higher
- action on cellular mitochondria (U-937 cells; xenon both in combination with cooling and without cooling): exerted protective action on cellular mitochondria
- cell growth (number of live cells) after exposure to doxorubicin (Jurkat cells [2]): improved cell growth after exposure to doxorubicin
